# Data reported in ChEMBL document CHEMBL5137028, “Progress and Challenges in Targeting the SARS-CoV-2 Papain-like Protease” (J Med Chem, 2022).
# Experiments:
# SARS-CoV-2 [1] = experiment: Antiviral activity against SARS-CoV-2 infected in human HeLa cells expressing hACE2 assessed as inhibition of viral replication at MOI of 0.3 treated for 46 hrs by fluorescence microscopy; assay type: functional, organism-based; conditions: Severe acute respiratory syndrome coronavirus 2, HeLa
# HeLa = experiment: Cytotoxicity against human HeLa cells expressing hACE2 assessed as cell viability treated for 72 hrs by Cell Titer Glo assay; assay type: functional
# [2] = Stability in human liver S9 fraction assessed as half life; assay type: ADME, subcellular
# [3] = Stability in human liver microsome assessed as half life; assay type: ADME; conditions: liver microsomes
# SARS-CoV-2 [4] = experiment: Antiviral activity against SARS-CoV-2 infected in African green monkey Vero cells assessed as viral growth inhibition by cell culture based assay; assay type: functional, organism-based; conditions: Severe acute respiratory syndrome coronavirus 2, Vero
# SARS-CoV-2 [5] = experiment: Antiviral activity against SARS-CoV-2 USA-WA1/2020 isolate infected in human Caco2 expressing hACE2 cells assessed as viral growth inhibition at MOI of 0.1 treated for 24 hrs by fluorescence microscopy; assay type: functional, organism-based; conditions: Severe acute respiratory syndrome coronavirus 2, USA-WA1/2020 isolate, Caco-2, 24 h
# SARS-CoV-2 [6] = experiment: Antiviral activity against SARS-CoV-2 USA-WA1/2020 infected in African green monkey Vero E6 cells assessed as viral growth inhibition pretreated for 1 hr followed by infection at MOI of 0.1 measured after 48 hrs by Cell Titer Glo assay; assay type: functional, organism-based; conditions: Severe acute respiratory syndrome coronavirus 2, USA-WA1/2020, Vero C1008
# [7] = target: Replicase polyprotein 1ab (Severe acute respiratory syndrome coronavirus 2) (UniProt P0DTD1); experiment: Inhibition of SARS-CoV-2 papain-like protease nsp3 (745 to 1061 residues) expressed in Escherichia coli
# [8] = Cytotoxicity against African green monkey Vero E6 cells assessed as cell viability treated for 24 to 48 hrs by prestoblue staining based assay; assay type: toxicity, Vero C1008; conditions: chlorocebus sabaeus, time 24-48 hrs
# [9] = Cytotoxicity against African green monkey Vero E6 cells assessed as cell viability; assay type: toxicity, cell-based, Vero C1008; conditions: chlorocebus sabaeus
# SARS-CoV-2 [10] = experiment: Antiviral activity against SARS-CoV-2 infected in human A549 cells expressing ACE2 assessed as viral growth inhibition; assay type: functional, organism-based; conditions: Severe acute respiratory syndrome coronavirus 2, A549
# A549 = experiment: Cytotoxicity against human A549 cells expressing ACE2 assessed as cell viability; assay type: functional
# [11] = Selectivity index, ratio of CC50 for human A549 cells expressing ACE2 to EC50 for SARS-CoV-2 infected in human A549 cells expressing ACE2; assay type: toxicity, cell-based; conditions: read-out: Ratio CC50/EC50
# SARS-CoV-2 [12] = experiment: Antiviral activity against SARS-CoV-2 infected in African green monkey Vero cells assessed as viral growth inhibition; assay type: functional, organism-based; conditions: Severe acute respiratory syndrome coronavirus 2, Vero
# [13] = Cytotoxicity against African green monkey Vero cells assessed as cell viability; assay type: toxicity, cell-based; conditions: chlorocebus sabaeus
# [14] = Selectivity index, ratio of CC50 for African green monkey Vero cells to EC50 for SARS-CoV-2 infected in African green monkey Vero cells; assay type: toxicity; conditions: read-out: Ratio CC50/EC50
# [15] = system: Middle East respiratory syndrome-related coronavirus; experiment: Antiviral activity against MERS-CoV assessed as viral growth inhibition; assay type: functional, organism-based
# [16] = Antiviral activity against HCoV-OC43 assessed as viral growth inhibition; assay type: functional, Human coronavirus OC43
# SARS-CoV-2 [17] = experiment: Antiviral activity against SARS-CoV-2 infected in African green monkey Vero cells assessed as viral growth inhibition measured after 72 hrs by LDH assay; assay type: functional, organism-based; conditions: Severe acute respiratory syndrome coronavirus 2, Vero
# [18] = Cytotoxicity against African green monkey Vero E6 cells assessed as cell viability treated for 24 hrs by CCK8 assay; assay type: toxicity, cell-based, Vero C1008; conditions: chlorocebus sabaeus
# SARS-CoV-2 [19] = experiment: Antiviral activity against SARS-CoV-2 infected in African green monkey Vero cells assessed as viral growth inhibition incubated for 1 hr by crystal violet staining based plaque reduction assay; assay type: functional, organism-based; conditions: Severe acute respiratory syndrome coronavirus 2, Vero
compound,measurement,setting,value
C[C@H](c1cccc2ccccc12)N1CCC(C(=O)NCc2cc(F)cc(NC(=O)N3CCN(C)CC3)c2)CC1,EC50,SARS-CoV-2 [1],0.18 µM
same,CC50,HeLa,> 10 µM
COC(=O)/C=C/C(=O)NNC(=O)CCc1ccccc1C(=O)N[C@H](C)c1cccc2ccccc12,half-life,[2],60 min
same,half-life,[3],50 min
Cc1cc2nc3c(=O)[nH]c(=O)nc-3n(C)c2cc1C=O,EC50,SARS-CoV-2 [4],20 µM
Cc1cccc2c3c(ccc12)C1=C(C(=O)C3=O)[C@@H](C)CO1 [DIHYDROTANSHINONE I],EC50,SARS-CoV-2 [4],8.15 µM
C[C@H](c1cccc2ccccc12)N(C)Cc1c[nH]c2ccccc12,EC50,SARS-CoV-2 [5],12 µM
C[C@@H](NC(=O)c1ccccc1CCC(=O)NNC(=O)CCl)c1cccc2ccccc12,EC50,SARS-CoV-2 [6],34 µM
COC(=O)/C=C/CNC(=O)CNC(=O)[C@H](CN)NC(=O)[C@H](CCc1nc2ccccc2s1)NC(C)=O,INH,[7],100 µM
O=C1c2c(O)cccc2[C@@H]([C@@H]2O[C@H](CO)[C@@H](O)[C@H](O)[C@H]2O)c2cc(CO)cc(O)c21,CC50,[8],> 100 µM
COC(=O)/C=C/CNC(=O)CNC(=O)[C@H](CN)NC(=O)[C@H](CCc1ccc(O)cc1)NC(C)=O,INH,[7],100 µM
Nc1nc2nc[nH]c2c(=S)[nH]1 [THIOGUANINE],CC50,[9],35.5 µM
Nc1ccc2cc3ccc(N)cc3nc2c1 [PROFLAVINE],EC50,SARS-CoV-2 [10],0.086 µM
same,CC50,A549,3.1 µM
same,selectivity ratio,[11],36
same,EC50,SARS-CoV-2 [12],0.064 µM
same,CC50,[13],3.4 µM
same,selectivity ratio,[14],53
same,IC50,[15],0.021 µM
same,IC50,[16],0.105 µM
Cc1coc2c1C(=O)C(=O)c1c-2ccc2c1CCCC2(C)C [TANSHINONE IIA],EC50,SARS-CoV-2 [4],> 200 µM
COc1cc(CNC(=O)C2CCN(C(C)c3cccc4ccccc34)CC2)ccn1 (stereo not drawn),EC50,SARS-CoV-2 [17],< 11 µM
Cc1coc2c1C(=O)C(=O)c1c-2ccc2c(C)cccc12 [TANSHINONE I],CC50 at 24 h,[18],> 200 µM
C[C@H]1COC2=C1C(=O)C(=O)c1c2ccc2c1CCCC2(C)C [CRYPTOTANSHINONE],EC50,SARS-CoV-2 [4],> 200 µM
same,CC50 at 24 h,[18],> 300 µM
O=C1c2c(O)cccc2[C@H]([C@@H]2O[C@H](CO)[C@@H](O)[C@H](O)[C@H]2O)c2cc(CO)cc(O)c21,CC50,[8],> 100 µM
Cc1ccc(N)cc1C(=O)N[C@H](C)c1cccc2ccccc12,EC50,SARS-CoV-2 [19],3.18 µM
same,EC50,SARS-CoV-2 [4],32.6 µM
